The values that follow come from patent US10047345B2, “Culturing of mesenchymal stem cells with FGF4 and nicotinamide” (Gamida-Cell Ltd., priority 2012, dated 2018).

One assay deals with mesenchymal stem cells. Briefly: In vitro wound healing assay. It counts as cell-based, human. As to conditions: passage 3, 4 days post wound formation. Here is the method: Wound was performed in MSCs cultures at ˜70% confluence using 200 μl or 1000 μl tip. Four days later the cells were fixated using 10% cold Formalin (Sigma) and stained with Harris Hematoxylin (Sigma). The in-vitro wound healing process was evaluated using microscope.

Assay [1] deals with umbilical cord-derived CD133+ hematopoietic stem cells. The assay is described as follows: Differentiation and proliferation of ex-vivo cultured hematopoietic stem cells (FACS surface markers). It counts as cell-based. Here is the method: Umbilical cord-derived hematopoietic stem cells were isolated using CD133 microbeads and CliniMACS® separator (Miltenyi, Inc. Auburn, Calif.), and cultured for 3 weeks in MEMα supplemented with 50 ng/ml TPO, IL6, SCF, Flt3, fetal bovine serum, ±2.5 or 5 mM nicotinamide, and/or 10, 50 or 200 ng/ml FGF4. After 3 weeks in culture the cells were stained for surface markers (CD38, CD133, CD33, CD19) and the cell populations determined by FACS analysis (see below). Results are expressed as percentage of total population assayed.
At different time points the cells were detached with 0.25% trypsin-EDTA. The cells were washed with a PBS solution containing 1% BSA, and stained (at 4° C. for 30 min) with either fluorescein isothiocyanate (FITC) or phycoerythrin (PE)-conjugated antibodies: 105 PE, 105 FITC (Serotec, Raleigh, N.C.), 45 FITC, 14 FITC, HLA-DR FITC, 106 PE, 31 PE (BD, Franklin Lakes N.J.), 34 PE (Dako, Glostrup, Denmark), 73 PE, HLA class1 PE, 49b PE (Pharmingen, San Diego, Calif.), 29 PE, 44 PE, 54 FITC, 59 PE, 90 PE (BioLegend, San Diego, Calif.). CD133—(AC141) PE (Miltenyi, Auburn, Calif.), CD38 FITC (Dako, Glostrup, Denmark), CD19 FITC (BD Biosciences, Franklin Lakes N.J.), CD33 FITC (BD Bioscience, Franklin Lakes N.J.).
The cells were then washed in the above buffer and analyzed using a FACScalibur® flow cytometer (Becton Dickinson, Franklin Lakes N.J.). The cells were passed at a rate of up to 1000 cells/second, using a 488 nm argon laser beam as the light source for excitation. Emission of 10000 cells was measured using logarithmic amplification, and analyzed using the CellQuest software (Becton Dickinson). Cells stained with FITC- and PE-conjugated isotype control antibodies were used to determine background fluorescence.
Umbilical cord-derived CD133+ hematopoietic stem cells were isolated and cultured for 3 weeks in medium supplemented with early-acting growth factors and fetal bovine serum, nicotinamide and/or FGF4. After 3 weeks in culture the cells were stained for surface markers (CD38, CD133, CD19) and the cell populations determined by FACS analysis. Cell proliferation was assessed by counting total cells at three weeks.

As to `NC(=O)c1cccnc1` [nicotinamide, Nicotinamide], the “wound closure by MSCs” value with mesenchymal stem cells was “higher ability to perform wound closure”. The “degree of differentiation of hematopoietic progenitor cells (CD38 and CD133-expressing fraction)” value in assay [1] (3 weeks culture, nicotinamide 2.5 or 5 mM, FGF4 10 to 200 ng/ml) was “decreases significantly”. For the same compound, in assay [1] (3 weeks, FIG. 35), the “fraction of undifferentiated early progenitors (CD38-CD133+)” value is recorded as “significantly greater fraction”. In assay [1] (3 weeks, FIG. 36), the “differentiation (CD38+ cells)” value was “significant inhibition of differentiation”. Further, the “myeloid lineage differentiation (CD33+ cells)” value in assay [1] (3 weeks, FIG. 37) was “significant inhibition”. In addition, the “lymphoid lineage differentiation (CD19+ cells)” value in assay [1] (3 weeks, FIG. 38) is “striking inhibition”. Further, in assay [1] (three week cultures), the “abundance of committed myeloid or lymphoid cells (CD33, CD19)” value was “consistently reduced the committed cell fraction”.
